{"source": "patent US12329457B2", "about": "“Hyperspectral imaging for early detection of Alzheimer's disease” (REGENTS OF THE UNIVERSITY OF MINNESOTA, priority 2011, dated 2025)", "key": {"Aβ^1-42 aggregation": {"target": "T1, Aβ^1-42 aggregation (Homo sapiens, UniProt P05067)", "T1 construct": "Aβ1-42, FITC-Aβ1-42 and FITC-scrambled-Aβ1-42 were purchased from American Peptide Company; purchased American Peptide Company (Sunnyvale, CA, USA); host or cells: synthetic peptide added to SH-SY5Y cell cultures", "T1 sequence (P05067 672-713)": "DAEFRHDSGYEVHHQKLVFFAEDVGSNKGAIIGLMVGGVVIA", "assay": "HSI spectral signature inhibitor screening in Aβ1-42-treated SH-SY5Y cells", "assay_type": "cell-based", "conditions": "cells co-incubated with inhibitor and Aβ^1-42; rank guanidine, then guanosine, then urea", "description": "(§1) Cell Culture and Cellular Uptake. The human neuroblastoma cell line, SH-SY-5Y, used in the present study was obtained from American Type Culture Collection (Manassas, VA). The cells were maintained in MEM:F12 (1:1) medium supplemented with 10% FBS, 100 units/mL penicillin and 100 units/mL streptomycin and 1% NEAA (non-essential amino acid). Cells were grown at 37° C. in a humidified atmosphere with 5% CO2/95% air. FITC-Aβ1-42, and FITC-scrambled-Aβ1-42, were added to SHSY5Y cultures for 24 h. For time-dependence experiments, 250 nM FITC-Aβ1-42 was added to SHSY5Y cells, plated in 4-well Lab-Tek chamber slides (Nunc) and images as well as spectral scans (Cytoviva) were acquired at varying times (0-5 days) after addition of the labeled-Aβ1-42. For dose-dependence experiments, FITC-Aβ1-42 was added at varying concentrations (0-1000 nM) and imaged 24 h thereafter. In some experiments, SH-SY-5Y cells were incubated with FITC-Aβ1-42 for 48 h in the presence and absence of inhibitors or promoters of β-amyloid peptide.\nCytoViva hyperspectral imaging System After each treatment, slides were examined utilizing a CytoViva microscope and hyperspectral imaging system (CytoViva-Hyperspectral Imaging System (HSI), Auburn, AL; see the Cytoviva Hyperspectral Imaging System Manual) mounted on an Olympus BX-41 optical microscope. This system employs a darkfield-based illuminator that focuses a highly collimated light at oblique angles on the sample to obtain images with improved contrast and signal-to-noise ratio. […]\n(§2) The images were captured at 40× magnification using ENVI software, which is followed by extraction of spectral curves as described in the next section. The camera captured spectral responses from 400-1000 nm with a maximum readout time of 12 frames per second. […]\n(§3) Acquisition of Spectral Scans from Hyperspectral Image The CytoViva Hyperspectral image analysis software powered by ENVI contains features to aid in the quantification and identification of materials by spectral data analysis. […]"}, "Aβ^1-42 aggregates": {"target": "T2, Aβ^1-42 aggregates (Homo sapiens, UniProt P05067)", "T2 construct": "Aβ1-42, FITC-Aβ1-42 and FITC-scrambled-Aβ1-42 were purchased from American Peptide Company; purchased American Peptide Company (Sunnyvale, CA, USA); host or cells: synthetic peptide added to SH-SY5Y cell cultures", "T2 sequence (P05067 672-713)": "as above", "assay": "HSI with Spectral Angle Mapper (SAM) mapping and counting of intracellular amyloid aggregates", "assay_type": "cell-based", "conditions": "HSI imaging coupled with SAM", "description": "Cell Culture and Cellular Uptake. The human neuroblastoma cell line, SH-SY-5Y, used in the present study was obtained from American Type Culture Collection (Manassas, VA). The cells were maintained in MEM:F12 (1:1) medium supplemented with 10% FBS, 100 units/mL penicillin and 100 units/mL streptomycin and 1% NEAA (non-essential amino acid). Cells were grown at 37° C. in a humidified atmosphere with 5% CO2/95% air. FITC-Aβ1-42, and FITC-scrambled-Aβ1-42, were added to SHSY5Y cultures for 24 h. […]\nas §2\nSpectral Angle Mapping Classification Algorithm Among supervised classification methods, a SAM classification algorithm was selected due to its better performance than other classification algorithms for detection of β-amyloid aggregates in unknown samples. […] The spectral angle parameter value as α=0·1 or 0·2 was used for a SAM classifier where α is defined as the angle between testing spectrum vector a, and reference spectrum vector b and is calculated using the following equation: (Also, see FIG. 14, and Siddiqi et al., Cancer, 114(1), 13-21 (2008)."}, "SH-SY5Y cells": {"test_system": "SH-SY5Y cells", "assay": "HSI spectral signature of cells exposed to Aβ1-42", "assay_type": "cell-based, human", "description": "as §1, with “In some experiments, SH-SY-5Y cells were incubated with FITC-Aβ1-42 for 48 h in the presence and absence of inhibitors or promoters of β-amyloid peptide.” left out\nas §2, §3"}, "APP/PS1 mice [1]": {"test_system": "APP/PS1 mice", "assay": "Immunohistochemistry of brain tissue for Aβ load and plaques", "assay_type": "in vivo, mouse", "description": "(a) Isolation and analysis of brain tissue. Brains were removed from wild type and Alzheimer's mice and post fixed in Zamboni's fixative (4% paraformaldehyde and 15% picric acid in 0.25 M sodium phosphate, pH 7.5) for 48 h before being cryopreserved in a 30% (wt/vol) sucrose/0.1 sodium phosphate-buffered saline solution. Frozen sections (10 μm) in OCT were cut on a sliding microtome, brought to room temperature and were coverslipped with hardset Vectashield mounting medium with the nuclear stain DAPI (catalogue #H-1500; Vector Laboratories, Burlingame, CA). The whole-mount brain slides were scanned with Cytoviva microscope and spectral signatures were collected from wavelengths in the 400-1000 nm range as described.\n(c) Immunohistochemistry of mouse brain and retina samples. For immunofluorescence studies, brain section slides and retina sample slides were pre-incubated for 1 hour in 5% normal goat serum (NGS) in 1×PBST (1×PBS containing 0.3% Triton X-100) at room temperature. A primary antibody against β-amyloid peptide ((Cell signaling, Cat. #2454) was employed then at a dilution of 1:200 in 1% NGS in 1×PBST. After an overnight incubation at 4° C., the slides were rinsed thrice for 10 min with 1×PBST and then incubated for 2 h in goat anti-rabbit IgG conjugated to Cy3 diluted to 1:1000 in 1% NGS in 1× PBST. The sections were rinsed in PBST thrice for 10 min and in PBS for 5 min. Samples were then dehydrated in ethanol, cleared with methyl salicylate, mounted in DEPEX (Electron Microscopy Science, Poole, UK) and staining of β-amyloid aggregates and plaques was visualized with Cytoviva microscope.\n(§4) Hyperspectral Imaging to follow treatment success in Alzheimer's mice Alzheimer's and wild type mice were treated with a candidate drug, ψ-GSH, three times a week for 12 weeks starting at the age of three to four months. (see More et al., (2012) Restoration of Glyoxalase Enzyme Activity Precludes Cognitive Dysfunction in a Mouse Model of Alzheimer's Disease. ACS Chem. Neurosci., DOI: 10.1021/cn3001679) The study was divided in four groups (10 mice/group). 1. […]"}, "APP/PS1 mice [2]": {"test_system": "APP/PS1 mice", "assay": "Retinal HSI spectra to follow treatment in APP/PS1 mice", "assay_type": "in vivo, mouse", "description": "(b) Isolation and analysis of retina tissue. Eyes were enucleated from wild type and Alzheimer's mice at the desired age. For whole-mount retinas, eyes were fixed in […] of freshly prepared 4% PFA-PBS at room temperature for 45 minutes. This was followed by washing with ice-cold PBS solution (2 mL) at least five times. The anterior eye portion, cornea, was dissected out under surgical microscope. The iris was then removed followed by the sclera, lens and hyaloid vessels. The isolated retinas were then washed with ice-cold PBS and divided into four quadrants by making four radial incisions. The whole-mounts were prepared by transferring the dissected retinas onto a microscope slide and coverslipped with hardset Vectashield mounting medium with the nuclear stain DAPI. The whole-mount retina slides were scanned with Cytoviva microscope and spectral signatures were collected from wavelengths in the 400-1000 nm range as described before.\nas §4"}, "APP/PS1 mice [3]": {"test_system": "APP/PS1 mice", "assay": "Morris Water maze memory test in APP/PS1 mice", "assay_type": "in vivo, mouse"}}}
{"compound": "N=C(N)N", "note": "[guanidine, Guanidine]", "values": [{"measurement": "attenuation of amyloid-induced HSI spectral change", "setting": "Aβ^1-42 aggregation", "result": "greatest attenuation in HSI spectral change"}, {"measurement": "number of intracellular amyloid aggregates compared to cells treated with Aβ^1-42 alone", "setting": "Aβ^1-42 aggregates", "result": 62, "unit": "%"}]}
{"compound": "Aβ^1-42: β-amyloid peptide purchased from American Peptide Company; FITC-labelled form used for cell uptake", "values": [{"measurement": "time at which transmitted light reaches its nadir", "setting": "SH-SY5Y cells; 250 nM peptide, HSI spectra over time", "result": 48, "unit": "h"}, {"measurement": "HSI spectral change in the 400-1000 nm wavelength region", "setting": "SH-SY5Y cells; SH-SY5Y cells, 0-1000 nM peptide", "result": "transmitted light shifts to lower values"}]}
{"compound": "[Zn+2]", "note": "[Zn^2+]", "values": [{"measurement": "number of intracellular amyloid aggregates compared to cells treated with Aβ^1-42 alone", "setting": "Aβ^1-42 aggregates", "result": 280, "unit": "%"}]}
{"compound": "NC(N)=O", "note": "[urea]", "values": [{"measurement": "attenuation of amyloid-induced HSI spectral change", "setting": "Aβ^1-42 aggregation", "result": "attenuation of amyloid-induced HSI spectral change"}]}
{"compound": "Nc1nc2c(ncn2[C@@H]2O[C@H](CO)[C@@H](O)[C@H]2O)c(=O)[nH]1", "note": "[guanosine]", "values": [{"measurement": "attenuation of amyloid-induced HSI spectral change", "setting": "Aβ^1-42 aggregation", "result": "attenuation of amyloid-induced HSI spectral change"}]}
{"compound": "N[C@@H](CNC(=O)N[C@@H](CS)C(=O)NCC(=O)O)C(=O)O", "note": "[ψ-GSH]", "values": [{"measurement": "brain Aβ load", "setting": "APP/PS1 mice [1]; i.p., versus untreated APP/PS1 mice", "result": "significantly lower Aβ load"}, {"measurement": "Aβ plaques in brain relative to controls", "setting": "APP/PS1 mice [1]; orally treated APP/PS1 mice", "result": "modest decrease in Aβ plaques"}, {"measurement": "number and sizes of Aβ plaques in brain", "setting": "APP/PS1 mice [1]; ψ-GSH treated group (i.p.)", "result": "drastically reduced"}, {"measurement": "retinal HSI spectra", "setting": "APP/PS1 mice [2]; APP/PS1 mice treated orally", "result": "did not exhibit any differences from those of transgenic mice"}, {"measurement": "retinal HSI spectra", "setting": "APP/PS1 mice [2]; APP/PS1 mice, ψ-GSH i.p. 12 weeks, after 2 months of treatment onward", "result": "tended toward those from normal mice"}, {"measurement": "spatial memory development and escape latencies relative to the saline-treated group", "setting": "APP/PS1 mice [3]; APP/PS1 mice treated orally", "result": "did not reach statistical significance"}, {"measurement": "escape latency", "setting": "APP/PS1 mice [3]; day 3, ψ-GSH treated mice (WT saline 17.29±2.13 s)", "result": "17.91 ± 4.65", "unit": "s"}, {"measurement": "escape latency", "setting": "APP/PS1 mice [3]; day 4, ψ-GSH treated mice (WT saline 12.42±2.18 s)", "result": "14.64 ± 2.61", "unit": "s"}, {"measurement": "learned behavior during the first week of testing", "setting": "APP/PS1 mice [3]; i.p.", "result": "significant learned behavior inculcation"}, {"measurement": "time in the target quadrant, probe trial", "setting": "APP/PS1 mice [3]; i.p., untreated APP-PS1 16.39±3.39%, non-transgenic vehicle 36.67±5.30%", "result": "38.43±3.73", "unit": "%"}, {"measurement": "time in the target quadrant, probe trial", "setting": "APP/PS1 mice [3]; orally treated APP/PS1 mice", "result": "21.76±5.36", "unit": "%"}]}
